# Measurements: patent US20040053234A1, “Polynucletides that control delta-6 desaturase genes and methods for identifying compounds for modulating delta-6 desaturase” (priority 2000, published 2004)
# Assays:
# delta 6 desaturase = target: T1, delta 6 desaturase (Rattus norvegicus, UniProt Q9Z122); test: Inhibition of delta 6 desaturase in rat liver microsomes incubated with alpha-linolenic or linoleic acid; format: biochemical
# T1 construct: from tissue; host or cells: rat liver microsomes (female Wistar rats)
# Method: As proposed by Leikin and Brenner (Leikin A. I. and Brenner R. R., 1989, Biochim. Biophys. Acta. September 25, 1005: 187-191), the following are best conditions for the desaturation assays since the enzymes are saturated with the substrates and the reactions are linear within the incubation time. Reactions were started by adding 2 or 3 mg of microsomal protein to pre-incubated tubes containing 0.20 μCi of the substrate fatty acid at a final concentration of 33.3 μM in 1.5 ml of the homogenization solution, containing NaF (42 mM), niacinamide (0.33 mM), ATP (1.57 mM), NADH (1.01 mM) and coenzyme A (0.09 mM) as described elsewhere (Leikin A. I. and Brenner R. R., 1989, Biochim. Biophys. Acta. September 25,1005: 187-191).The tubes were vortexed vigorously and after 15 min incubation in a shaling water bath (37° C.), the reactions were stopped by the addition of 2 ml of 10% (w/v) KOH in ethanol. Lipids in the incubation mixture were saponified at 80° C. for 45 min under N2. The samples were then left in ice for 5 min before acidification. The fatty acids were extracted with hexane and esterified with BF3/methanol at 90° C. for 30 min (Morrison W. R. and Smith L. M., 1964, J. Lipid Res., 5: 600-608).
# Hepatic microsomes were obtained from female Wistar rats by differential centrifigation as described in Example 3.
# Incubations were performed as described in Example 3. N-propyl gallate was added to the incubation medium to a final concentration that ranged from 0.02 to 0.32 mM.
# [1] = target: T2, hD6D-1 (with V5/6xHis tags) (Homo sapiens, UniProt O95864); test: Inhibition of hD6D-1 in spheroplasts of transformed Saccharomyces cerevisiae; conditions: [1-14C]-alpha-linolenic acid
# T2 sequence (O95864 1-444): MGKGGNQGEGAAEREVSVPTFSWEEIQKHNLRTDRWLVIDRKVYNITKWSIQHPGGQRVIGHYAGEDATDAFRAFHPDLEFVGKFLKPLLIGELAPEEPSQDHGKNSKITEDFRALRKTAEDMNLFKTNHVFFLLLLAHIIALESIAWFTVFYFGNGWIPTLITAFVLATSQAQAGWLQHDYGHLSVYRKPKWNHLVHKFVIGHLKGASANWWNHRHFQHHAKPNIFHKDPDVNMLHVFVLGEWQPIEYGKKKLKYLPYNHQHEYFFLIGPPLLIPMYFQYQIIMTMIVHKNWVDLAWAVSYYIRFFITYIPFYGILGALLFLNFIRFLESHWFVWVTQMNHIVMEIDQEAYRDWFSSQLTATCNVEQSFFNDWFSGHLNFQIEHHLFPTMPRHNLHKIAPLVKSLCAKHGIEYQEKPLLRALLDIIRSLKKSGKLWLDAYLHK
# Method: (§1) Saccharomyces cerevisiae transformed with pYr5003.1 without V5/6×His tags or pTh5002.1 with V5/6×His tags were grown in modified SC-U medium with 2% galactose to induce the expression of the gene that encodes the fatty acid delta-6-desaturase. After 16 h incubation, cells were centrifuged at 2060×g for 5 min at 4° C., washed once with distilled water and centrifuged again. The volume and weight of the cell pellet were measured Cells were suspended (1:2 w/v) in 0.1 M Tris.SO4 (pH 9.4), 10 mM DTT and incubated at 30° C. After 10 min incubation, the cell pellet was obtained by centrifugation, washed once (1:20 w/v) with 1.2 M sorbitol and suspended (1:1 w/v) in 1.2 M sorbitol, 20 mM phosphate buffer (pH 7.4) as described elsewhere (Daum et al., 1982, J. Biol. Chem., 257: 13028-13033). The 15,800× g (1 min) supernatant of Lyticase was added to the cell suspension at a concentration of 2000 U/ml and the suspension incubated at 30° C. with 50 rpm shaking. Conversion to spheroplasts was checked after 40 min incubation by diluting the suspension with distilled water followed by observation under the microscope (Schatz G. and Kovac L., 1974, Methods in Enzymology, 31A: 627-632).
# (§2) Spheroplasts were harvested by centrifugation at 2060×g for 5 min at 4° C. and washed once with 1.2 M sorbitol. Spheroplasts were suspended in modified SC-U medium with 1% tergitol, 1.2 M sorbitol and 2% galactose to maintain the induction conditions and to give an OD600 reading of approximately 2.5-3.0. A 10 ml aliquot of the spheroplast suspension was transferred to a 125 ml Erlenmeyer flask and incubated with 200 μL of n-propyl gallate in ethanol (final concentration in the culture ranged between 0.7 and 14.1 mM) at 30° C. in an orbital incubator set at 270 rpm After 30 min incubation 1 μCi of [1-^14C]-alpha-linolenic or [1-^14C]-linoleic acids were added to the cultures to a final concentration of 2 μM and further incubated for 120 min. At this time point, turbidity readings at OD600 were taken, spheroplasts were harvested by centrifugation and washed with Tris buffer (100 mM, pH 8.0) containing 0.1%/o BSA. Total lipids were extracted as described below.
# (§3) The radioactivity from aliquots of the supernatant, spheroplasts and whole cells was determined by liquid scintillation counting using a LS6500-Scintillation System (Beckman) prior to the lipid extraction. Total lipids were extracted from cells or spheroplasts with chloroform/methanol (2:1 v/v) according to the method of Folch et al., 1957, J. Biol. Chem., 226: 497-509. The total lipid extracts were methylated using boron trifluoride in methanol at 90° C. for 30 min.
# (§4) The desaturase activity was determined by measuring the conversion of radiolabelled linoleic acid to gammna-linolenic acid (18:2n-6 to 18:3n-6) and alpha-linolenic acid to stearidonic acid (18:3n-3 to 18:4n-3). The percent inhibition was calculated as described elsewhere (Kawashima et al., 1996, Biosci. Biotech. Biochem., 60:1672-1676):
# (§5) Inhibition % =(activity without the inhibitor−activity with the inhibitor)/activity without the inhibitor
# [2] = test system: whole cells of transformed Saccharomyces cerevisiae; test: O.D.600 and substrate radioactivity recovered in whole yeast cells; conditions: hD6D-1 whole cells
# Method: Transformed Saccharomyces cerevisiae pTh5002.1 with V5/6xHis tags were incubated in a 125 ml Erlenmeyer flask containing 9 ml of modified SC-U medium with 1% tergitol (O.D.6000.4, approximately 3.2×10^6 cells) and 200 μl of 7, 14 or 28 mM n-propyl gallate in ethanol. After 1 h incubation in an orbital incubator at 270 rpm and 30° C., 1 μCi of potassium salts of [1-^14C]-linoleic or [1-^14C]-alpha-linolenic acids (dissolved in modified SC-U medium and 1% tergitol) were added to the cell suspension to a final concentration of 2 μM. After 5 h incubation with the inhibitor, cells reached the log phase and the transgene expression was induced with the addition of 1 ml of galactose to a final concentration of 2%.
# [3] = target: T2, hD6D-1 (with V5/6xHis tags)
# Method: as §1, §2, §3, §4, §5
# [4] = target: T3, rD6D-1 (without V5/6xHis tags) (Rattus norvegicus, UniProt Q9Z122); test: Inhibition of rD6D-1 in spheroplasts of transformed Saccharomyces cerevisiae; conditions: [1-14C]-linoleic acid
# Method: as §1, §2, §3, §4, §5
# [5] = target: T3, rD6D-1 (without V5/6xHis tags)
# Method: as §1, §2, §3, §4, §5
# [6] = target: T2, hD6D-1 (with V5/6xHis tags); test: Inhibition of hD6D-1 in whole cells of transformed Saccharomyces cerevisiae; format: cell-based; set-up: expressed in transfected cells; host or cells: Saccharomyces cerevisiae INVSc1 transformed with pTh5002.1 (pYES2/CT); conditions: [1-14C]-alpha-linolenic acid
# Method: Transformed Saccharomyces cerevisiae pTh5002.1 with V5/6xHis tags were incubated in a 125 ml Erlenmeyer flask containing 9 ml of modified SC-U medium with 1% tergitol (O.D.6000.4, approximately 3.2×10^6 cells) and 200 μl of 7, 14 or 28 mM n-propyl gallate in ethanol. After 1 h incubation in an orbital incubator at 270 rpm and 30° C., 1 μCi of potassium salts of [1-^14C]-linoleic or [1-^14C]-alpha-linolenic acids (dissolved in modified SC-U medium and 1% tergitol) were added to the cell suspension to a final concentration of 2 μM. After 5 h incubation with the inhibitor, cells reached the log phase and the transgene expression was induced with the addition of 1 ml of galactose to a final concentration of 2%. Yeast were further incubated for 19 h (OD600 range 7.2-9.3) until they were harvested by centrifugation at 5000×g for 10 minutes at 4° C. Cell were washed with Tris buffer (100 mM, pH 8.0) containing 0.1% BSA and total lipids were extracted as described below.
# The radioactivity from aliquots of the supernatant, spheroplasts and whole cells was determined by liquid scintillation counting using a LS6500-Scintillation System (Beckman) prior to the lipid extraction. […]
# The desaturase activity was determined by measuring the conversion of radiolabelled linoleic acid to gammna-linolenic acid (18:2n-6 to 18:3n-6) and alpha-linolenic acid to stearidonic acid (18:3n-3 to 18:4n-3). […]
# fatty acid desaturases = conditions: Kawashima et al., 1996; cited from earlier work
# [7] = test system: spheroplasts of transformed Saccharomyces cerevisiae; test: O.D.600 and substrate radioactivity recovered in spheroplasts (cytotoxicity, uptake); format: cell-based
# Source text: Total lipids were extracted as described below.
# T3 sequence (Q9Z122 whole entry): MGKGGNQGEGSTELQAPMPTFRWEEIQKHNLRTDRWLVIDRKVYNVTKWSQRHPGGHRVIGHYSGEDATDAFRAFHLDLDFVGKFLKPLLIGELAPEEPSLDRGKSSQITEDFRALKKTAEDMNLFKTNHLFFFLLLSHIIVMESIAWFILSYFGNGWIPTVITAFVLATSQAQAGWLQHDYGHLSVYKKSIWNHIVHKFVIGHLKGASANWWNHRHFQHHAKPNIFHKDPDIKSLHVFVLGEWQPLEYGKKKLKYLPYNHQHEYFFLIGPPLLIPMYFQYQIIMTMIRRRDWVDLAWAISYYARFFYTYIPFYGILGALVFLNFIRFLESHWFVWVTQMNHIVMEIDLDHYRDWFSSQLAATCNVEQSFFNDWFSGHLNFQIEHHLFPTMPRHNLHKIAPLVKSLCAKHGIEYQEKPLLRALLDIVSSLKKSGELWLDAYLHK
# T1 sequence (Q9Z122 whole entry): as above
structure (smiles),measurement,setting,value
"CCCOC(=O)c1cc(O)c(O)c(O)c1 [n-propyl gallate, Propyl ester of 3,4,5-trihydroxybenzoic acid]",% of inhibition 18:2n-6 → 18:3n-6,delta 6 desaturase; inhibitor 0.02 mM,18.0%
same,% of inhibition 18:3n-3 → 18:4n-3,delta 6 desaturase; inhibitor 0.02 mM,28.7%
same,% of inhibition 18:2n-6 → 18:3n-6,delta 6 desaturase; inhibitor 0.04 mM,32.0%
same,% of inhibition 18:3n-3 → 18:4n-3,delta 6 desaturase; inhibitor 0.04 mM,42.5%
same,% of inhibition 18:2n-6 → 18:3n-6,delta 6 desaturase; inhibitor 0.08 mM,64.5%
same,% of inhibition 18:3n-3 → 18:4n-3,delta 6 desaturase; inhibitor 0.08 mM,54.2%
same,% of inhibition 18:2n-6 → 18:3n-6,delta 6 desaturase; inhibitor 0.16 mM,82.6%
same,% of inhibition 18:3n-3 → 18:4n-3,delta 6 desaturase; inhibitor 0.16 mM,71.3%
same,% of inhibition 18:2n-6 → 18:3n-6,delta 6 desaturase; inhibitor 0.32 mM,98.7%
same,% of inhibition 18:3n-3 → 18:4n-3,delta 6 desaturase; inhibitor 0.32 mM,79.5%
same,% of inhibition,[1]; inhibitor 0.7 mM,11.6%
same,% of inhibition,[1]; inhibitor 1.4 mM,18.8%
same,% of inhibition,[1]; inhibitor 2.8 mM,56.4%
same,% of inhibition,[1]; inhibitor 14.1 mM,100%
same,O.D.600,[2]; inhibitor 7 mM,9.3
same,O.D.600,[2]; inhibitor 14 mM,7.2
same,O.D.600,[2]; inhibitor 28 mM,0
same,inhibition,[3],82.3%
same,% of inhibition,[4]; inhibitor 0.7 mM,8.9%
same,% of inhibition,[4]; inhibitor 1.4 mM,39.2%
same,% of inhibition,[4]; inhibitor 2.8 mM,77.4%
same,% of inhibition,[4]; inhibitor 14.1 mM,100%
same,inhibition,[5],100%
same,% of inhibition,[6]; inhibitor 7 mM,36.7%
same,% of inhibition,[6]; inhibitor 14 mM,73.6%
same,Mode of inhibition,fatty acid desaturases,noncompetitive inhibitor
same,Concentrations that may be toxic for the spheroplasts,"[7]; cell number slightly decreased, radioactivity recovered substantially reduced",> 5600 µM
same,O.D.600,"[7]; hD6D-1 spheroplasts, inhibitor 0.7 mM",2.2
same,O.D.600,"[7]; hD6D-1 spheroplasts, inhibitor 1.4 mM",3.4
same,O.D.600,"[7]; hD6D-1 spheroplasts, inhibitor 2.8 mM",3.1
same,O.D.600,"[7]; hD6D-1 spheroplasts, inhibitor 5.6 mM",3.5
same,O.D.600,"[7]; hD6D-1 spheroplasts, inhibitor 14.1 mM",2.5
same,Cytotoxicity to spheroplasts,"[7]; n-propyl gallate 0.7-5.6 mM, constant O.D.600, similar radioactivity recovered",not cytotoxic
same,O.D.600,"[7]; rD6D-1 spheroplasts, inhibitor 0.7 mM",2.5
same,O.D.600,"[7]; rD6D-1 spheroplasts, inhibitor 1.4 mM",2.6
same,O.D.600,"[7]; rD6D-1 spheroplasts, inhibitor 2.8 mM",2.5
same,O.D.600,"[7]; rD6D-1 spheroplasts, inhibitor 5.6 mM",2.6
same,O.D.600,"[7]; rD6D-1 spheroplasts, inhibitor 14.1 mM",2.3
